US20210017180A1, “PYCLEN-BASED MACROCYCLIC LIGANDS, CHELATES THEREOF AND USES THEREOF” (CENTRE NATIONAL DE LA RECHERCHE SCIENTIFIQUE, priority 2018, published 2021)

Assay: Brightness B = Φ * εmax
Format: physicochemical
Conditions: versus chelate of unsubstituted ligand (Table 7)
Source text: • “Brightness (B)” refers to the amount of radiation emitted by a chromophore or dye. In the case of one-photon absorption, B is defined as the product of the emission quantum yield (Φ) by the molar absorption coefficient (ε), i.e., B=ε·Φ, at a given excitation wavelength. In the case of two-photon absorption, B is defined as the product of the emission quantum yield (Φ) by the cross section (σ), i.e., […], at a given excitation wavelength. • “Carboxylate ester” refers to an ester of a molecule, said molecule comprising at least one carboxylic acid function (—COOH), wherein the ester is formed by esterification of at least one carboxylic acid function of the molecule. Preferred carboxylic esters are methyl esters. “Mono-ester”, “di-ester” and “tri-ester” respectively refers to esters wherein exactly one, two and three carboxylic acid functions have been esterified. • “Carboxylate salt” refers to a salt of a molecule, said molecule comprising at least one carboxylic acid function (—COOH), wherein the salt is formed by deprotonation of at least one carboxylic acid function of the molecule. Preferred carboxylic salts are potassium or sodium salts, more preferably potassium salts. […]

## COCCOCCOCCOc1ccc(C#Cc2cc(CN3CCN(CC(=O)[O-])CCN(Cc4cc(C#Cc5ccc(OCCOCCOCCOC)cc5)cc(C(=O)[O-])n4)Cc4cccc(n4)C3)nc(C(=O)[O-])c2)cc1.[K+].[K+].[K+] [Complex S4, potassium 6,6′-((6-(carboxylatomethyl)-3,6,9-triaza-1(2,6)-pyridinacyclodecaphane-3,9-diyl)bis(methylene)) bis(4-((4-(2-(2-(2-methoxyethoxy)ethoxy)ethoxy)phenyl)ethynyl) picolinate)]
  increase in brightness of europium chelate on substitution of picolinate arms by chromophore: about 3 fold

## COCCOCCOCCOc1ccc(C#Cc2cc(CN3CCN(CC(=O)[O-])Cc4cccc(n4)CN(Cc4cc(C#Cc5ccc(OCCOCCOCCOC)cc5)cc(C(=O)[O-])n4)CC3)nc(C(=O)[O-])c2)cc1.[K+].[K+].[K+] [Complex S1, potassium 6,6′-((9-(carboxylatomethyl)-3,6,9-triaza-1(2,6)-pyridinacyclodecaphane-3,6-diyl)bis(methylene)) bis(4-((4-(2-(2-(2-methoxyethoxy)ethoxy)ethoxy)phenyl)ethynyl) picolinate)]
  increase in brightness of europium chelate on substitution of picolinate arms by chromophore: about 4 fold
